Measurements taken from US20220031871A1, “ANTIBODIES FOR CHELATED RADIONUCLIDES AND CLEARING AGENTS” (Hoffmann-La Roche Inc., priority 2018, published 2022).
Marks after values point to notes of the source that are not given here.

How the values were obtained:
s.c. BxPC3 tumors = assay: Protocol 103: efficacy, biodistribution, tolerability of CEA-PRIT; format: in vivo, SCID mice
Description: Step 1: Administration of a BsAb (i.v. or i.p.): The BsAb used in the studies binds Pb-DOTAM with high affinity and targets the tumor e.g. via CEA.
Step 2: Administration of CA (i.v. or i.p.): To allow efficient tumor accumulation of ^212Pb-DOTAM, circulating BsAb needs to be neutralized in the blood using a CA that blocks ^212Pb-DOTAM binding to unbound BsAb, without penetrating into the tumor and consequently blocking the pretargeted sites. The CA is administered once the BsAb has accumulated to a sufficient degree in the tumor, generally after 4-10 days. […]
The body weight (BW) of the study animals was measured at least 3 times per week, with additional measurements as needed depending on the health status. […]
Blood was collected at termination from the venous sinus using retro-orbital bleeding, followed by additional tissue harvest for radioactive measurements and/or histological analysis, as mandated by the protocols. […] Organs and tissues collected for biodistribution purposes were weighed and measured for radioactivity using a 2470 WIZARD^2 automatic gamma counter (PerkinElmer), and the percent injected dose per gram of tissue (% ID/g) subsequently calculated, including corrections for decay and background. […]
where d indicates treatment day and 0 the baseline value. […] Tumor regression (TR) was calculated according to: […]

LS174T tumors = assay: Protocol 93b: efficacy and biodistribution of CEA-PRIT; format: in vivo, SCID mice
Description: The bispecific antibodies were compared side-by-side in single- and double-cycle treatment regimens.
Groups A-G represent the treated mice that were followed up for assessment of efficacy, whereas groups H-L comprise mice that were sacrificed for biodistribution purposes 24 h after their last ^212Pb-DOTAM injection.
Solid xenografts were established by subcutaneous injection of cells in RPMI (BxPC3) or DMEM (LS174T) media mixed 1:1 with Corning® Matrigel® basement membrane matrix (growth factor reduced; cat No. 354230).
For protocol 93b, mice (age 9 weeks) were injected s.c. into the right flank with 1×10^6 LS174T cells (passage 26) in 100 μl DMEM/Matrigel. Three days after tumor cell injection, mice were sorted into experimental groups with an average tumor volume of 150 mm^3.
To minimize re-ingestion of radioactive urine/feces after treatment cycle 1, cages were changed 4 hours after ^212Pb-DOTAM administration, and then again at 24 h p.i. For cycle 2, mice were placed in cages with grilled floors for 4 hours after ^212Pb-DOTAM administration, before being transferred to new cages with standard bedding. All cages were then changed at 24 h p.i., as after cycle 1. The tumor development in the mice was followed through repeated calipering three times a week. If needed, additional calipering was performed in the gaps between scheduled measurements. The body weight of the animals was measured repeatedly in the same fashion. Mice whose tumor volume reached 3000 mm^3 were immediately euthanized. Other factors taken into account for euthanasia for ethical reasons were body weight loss, tumor status (e.g. ulceration) and general appearance of the animal. Wet food was provided to all animals starting from five days after the radioactive injection if mandated by an acute loss of body weight (collective or individual) due to radiation-induced toxicity, until all individuals had recovered sufficiently.
The following organs and tissues were harvested from groups A-G at the time of euthanasia: bladder, ovaries, liver, spleen, kidneys, femur (including bone marrow), colon, jejunum, stomach, and tumor. Unexpected or abnormal conditions were noted and photographed. Tissues were immediately put in 10% neutral buffered formalin (4° C.) and then transferred to PBS (4° C.) after 5 days. The formalin-fixed samples were then shipped to Roche Pharma Research and Early Development, Roche Innovation Center Basel, for further processing and analysis.
Mice in groups H, J, and L were sacrificed and necropsied 24 hours after their first and only injection of ^212Pb-DOTAM; groups I and K were sacrificed and necropsied 24 hours after their second ^212Pb-DOTAM injection. The following organs and tissues were harvested: blood, bladder, small intestine, colon, spleen, pancreas, kidneys, liver, lung, heart, femoral bone, muscle, tail, and tumor. Collected samples were weighed and measured for radioactivity, and the percent injected dose per gram of tissue (% ID/g) subsequently calculated, including corrections for decay and background.

[1] = labelled group 30 + 30 μCi 212Pb-DOTAM, multiple test level = 0.00238

With `NC(=O)CN1CCN(CC(N)=O)CCN(CC(N)=O)CCN(CC(N)=O)CC1.[212Pb+2]` [^212Pb-DOTAM] the BW loss (s.c. BxPC3 tumors; 10 μCi, even at multiple injections) was “mild”, the radioactivity level tolerability (s.c. BxPC3 tumors; 30 μCi under the applied conditions) was “approaching the maximum tolerated activity” and the TGI (LS174T tumors; day 22, 30+30 μCi, compared with PBS) was 64.7%. For the same molecule, the “Pairwise Log-Rank Test, survival, p vs PRIT-0175 30 + 30 μCi” value (LS174T tumors; [1]) was 0.0090*, the “Pairwise Log-Rank Test, survival, p vs PRIT-0213 30 + 30 μCi” value (LS174T tumors; [1]) was <0.0001* and the “Pairwise Log-Rank Test, survival, p vs PRIT-0213 30 μCi” value (LS174T tumors; [1]) was “<.0001*”. For the same molecule, the “Pairwise Log-Rank Test, survival, p vs PRIT-0214 30 + 30 μCi” value (LS174T tumors; [1]) was “<.0001*”, the “Pairwise Log-Rank Test, survival, p vs PRIT-0214 30 μCi” value (LS174T tumors; [1]) was 0.0091* and the “Pairwise Log-Rank Test, survival, p vs Vehicle (PBS)” value (LS174T tumors; [1]) was 0.0034*. For the same molecule, the “Pairwise Wilcoxon Test, survival, p vs PRIT-0175 30 + 30 μCi” value (LS174T tumors; [1]) was 0.0417*, the “Pairwise Wilcoxon Test, survival, p vs PRIT-0213 30 + 30 μCi” value (LS174T tumors; [1]) was 0.0002* and the “Pairwise Wilcoxon Test, survival, p vs PRIT-0213 30 μCi” value (LS174T tumors; [1]) was 0.0002*. The “Pairwise Wilcoxon Test, survival, p vs PRIT-0214 30 + 30 μCi” value (LS174T tumors; [1]) was 0.0002*, the “Pairwise Wilcoxon Test, survival, p vs PRIT-0214 30 μCi” value (LS174T tumors; [1]) was 0.0160* and the “Pairwise Wilcoxon Test, survival, p vs Vehicle (PBS)” value (LS174T tumors; [1]) was 0.0111*.
